Measured values from US6693126B2, “Dihydroxyphenyl derivatives for hepatoprotection and treatment of liver diseases” (Choongwae Pharm. Co., Ltd., priority 2000, dated 2004).

What was measured:
[1] = system: Liver Injuries caused by Carbon Tetrachloride in Rats; experiment: Inhibitory effect against liver injuries caused by carbon tetrachloride in rats; type: in vivo, Rats (SD, male); conditions: CCl4 i.p., serum 24 h
Excerpt: (§1) The carbon tetrachloride model(see, Philippe letteron et al., Biochemical Pharmacology, 39, 12, 2027-2034, 1990; Tips, 10, 1989; Kyoichi Kagawa et al., Japan J. Pharmacol., 42, 19-26, 1986; K. T. Liu and P. Lesca, Chem. Biol. Interactions, 41, 39-47, 1982; Richard O. et al., J. Biological Chemistry, 236, 2, 1961) is used most generally. This model has been established based on the internal phenomena that carbon tetrachloride is converted by cytochrome P-450 to a toxic free radical trichloromethyl(CCl3.), this radical is strongly bound to a thiol group of membrane protein on microsome of liver to form a lipid radical, which is then converted to a peroxy radical in the presence of oxygen to facilitate the peroxidation reaction of membrane lipid. That is, carbon tetrachloride suppresses protein biosynthesis in the liver, induces the increase of ALT and AST values in blood, and further causes histologically the centrilobular necrosis of the liver.
(§2) The degree of liver damage in the experimental animals was determined by measuring ALT and AST values in blood(see, Biol. Pharm. Bull., 20, 4, 381-385, 1997; Toxicology and Applied Pharmacology, 95, 1-11, 1988), and the hepatoprotective activity was calculated based on the following formula(see, Planta Medica, 55, 127-132, 1989). At this time, the hepatoprotective activity can also be calculated based on the same formula by replacing ALT value with AST value. [formula]
(§3) The hepatoprotective effect of the compound of the present invention was identified according to a known procedure(see, Philippe letteron et al., Biochemical Pharmacology, 39, 12, 2027-2034, 1990), and the protocol may be described in brief as follows.
(§4) Rats(SD, male, 180˜200 g) and mice(ICR, male, 27-35 g) used in the test were allowed in a condition of temperature 22±1° C. and relative humidity 60±5%. Feed and water were provided with no restriction while light and darkness were changed at an interval of 12 hours.
(§5) […] […] Each group included 8 test animals, and the test compound was orally administered once per animal. After 30 minutes(rat) or 1 hour(mouse) from the administration of the test compound, 10% carbon tetrachloride in corn oil solution was intraperitoneally injected in doses of 2 ml/kg in rats and 0.15 ml/kg in mice. As the control compounds, silymarin and DDB were selected.
(§6) The test animals were provided with no feed and sufficient water for 24 hours from the administration of carbon tetrachloride. […] This blood was centrifuged to obtain sera. ALT and AST values in the sera were measured using blood chemistry analyzer(Vitalab, Selectra II, Merck). The statistical significance for the test result of each group was examined based on Student's t-test, and the result was recognized as having a statistical significance when its P value is less than 5%.

[2] = system: Liver Injuries caused by Carbon Tetrachloride in Mice; experiment: Inhibitory effect against liver injuries caused by carbon tetrachloride in mice; type: in vivo, mice (ICR, male); conditions: CCl4 i.p., serum 24 h
Excerpt: as §1, §2, §3, §4, §5, §6

[3] = system: Liver Injuries caused by Thioacetamide in Mice; experiment: Inhibitory effect against liver injuries caused by thioacetamide in mice; type: in vivo, Mice (ICR, male); conditions: thioacetamide i.p., dose 50 mg/kg p.o. once, serum 24 h
Excerpt: The hepatoprotective effect of the compound of formula (1) was also identified by thioacetamide model(see, Masuda Yasusuke and Nakayama Nobue, Biochemical Pharmacology, 31, 17, 2713-2725, 1982; Liu Jie et al., Acta Pharmacologica Sinica, 16, 2, 97-102, 1995; Story D. L. et al., J. Tox. Environ. Health, 11, 483-501, 1983; Gomez-Lechon M. J. et al., Xenobiotica, 18, 6, 725-735, 1988) which is frequently used as an experimental model for liver injuries. This model has been established based on the phenomena that thioacetamide activated by P-450 S-oxidation inordinately increases the influx of calcium ion(Ca^++) into the liver cells, which in turn activates calcium ion-dependent phospholipase, protease and endonuclease, changes the cell frame through the calcium ion, exhausts ATP, and consequently destroys the liver cells. Thioacetamide also damages ureogenesis pathway in liver, and the metabolite of thioacetamide inhibits the transfer of RNA and makes the liver cell membranes unstable. A series of these activities results in the destruction of the liver cells, which in turn causes the increase of ALT and AST values in blood and also causes histologically the centrilobular necrosis.
as §2
The hepatoprotective effect of the compound of the present invention was identified according to a known procedure(see, Landon, E. J. et al., Biochemical Pharmacology, 35, 4, 697-705, 1986), and the protocol may be described in brief as follows.
(§7) Mice(ICR, male, 27˜35 g) as the test animal were allowed in a condition of temperature 22±1° C. and relative humidity 60±5%. Feed and water were provided with no restriction while light and darkness were changed at an interval of 12 hours.
The compound of the present invention was suspended in a solvent corn oil, and this suspension was administered in a dose of 10 ml/kg. Each group included 8 test animals, and the test compound was orally administered once per animal. After 1 hour from the administration of the test compound, thioacetamide solution(concentration: 90 mg/ml) in physiological saline was intraperitoneally injected in a dose of 1 ml/kg. As the control compounds, silymarin and DDB were selected.
The test animals were provided with no feed and sufficient water for 24 hours from the administration of thioacetamide. […] This blood was centrifuged to obtain sera. ALT and AST values in the sera were measured using blood chemistry analyzer(Vitalab, Selectra II, Merck). The statistical significance for the test result of each group was examined based on Student's t-test, and the result was recognized as having a statistical significance when its P value is less than 5%.

[4] = system: Fulminant Liver Injuries caused by D-galactosamine/lipopolysaccharide in Mice; experiment: Inhibitory effect against fulminant liver injuries caused by D-galactosamine/lipopolysaccharide in mice (survival); type: in vivo, Mice (ICR, male); conditions: D-galactosamine 800 mg/kg + lipopolysaccharide 10 μg/kg i.p., dose 50 mg/kg oral once, observed 24 hours
Excerpt: Further, the D-galactosamine/lipopolysaccharide model(see, Chris Galanos et al., Proc. Natl. Acad. Sci. USA, 76, 11, 5939-5943, 1979; Koji Hase et al., Biol. Pharm. Bull., 20, 4, 381-385, 1997; Junichi Nagakawa et al., The Journal of Pharmacology and Experimental Therapeutics, 264, 1, 1992; Nolan J. D., Hepatology, 1, 458-465, 1981; Wendel A., Methods Enzymol., 186, 675-680, 1990) which is also used in the present invention for the identification of hepatoprotective effect is based on the phenomena that liver injuries are caused by immune responses in mouse. It has been reported that such kind of liver injuries are caused not by direct tissue lesions due to the chemicals but by secretion of tumor necrosis factor(TNF)-α, reactive oxygen, etc.(see, Hishinuma I. et al., Hepatology, 12, 1187-1191, 1990, Hase K. et al., Phytother. Res., 10, 387-392, 1996). Here, D-galactosamine supresses protein biosynthesis and as well highly increases the sensitivity of the liver cells for lipopolysaccharide by reducing uridine nucleotide.
The hepatoprotective effect of the compound of the present invention was identified according to a known procedure(see, Koji Hase et al., Biol. Pharm. Bull., 20, 4, 381-385, 1997), and the protocol may be described in brief as follows.
as §7
The compound of the present invention was suspended in a solvent corn oil, and this suspension was administered in a dose of 10 ml/kg. Each group included 10 test animals, and the test compound was orally administered once per animal. After 1 hour from the administration of the test compound, D-galactosamine and lipopolysaccharide each of which dissolved in physiological saline were intraperitoneally injected at the same time in doses of 800 mg/kg and 10 μg/kg, respectively. As the control compounds, SY-640[N-methyl-N-(3,4-methylenedioxyphenacyl)acetamide; EP0350251], silymarin and DDB were selected.
The statistical significance for the test result of each group was examined based on Student's t-test, and the result was recognized as having a statistical significance when its P value is less than 5%.

Row | SMILES | Inhibitory Effect against Liver Injuries (%) ALT ([1]; dose 1.9 mg/kg p.o. once) [%] | Inhibitory Effect against Liver Injuries (%) ALT ([1]; dose 5.6 mg/kg p.o. once) [%] | Inhibitory Effect against Liver Injuries (%) ALT ([1]; dose 16.7 mg/kg p.o. once) [%] | Inhibitory Effect against Liver Injuries (%) ALT ([1]; dose 50 mg/kg p.o. once) [%] | Inhibitory Effect against Liver Injuries (%) ALT ([2]; dose 1.9 mg/kg p.o. once) [%] | Inhibitory Effect against Liver Injuries (%) ALT ([2]; dose 5.6 mg/kg p.o. once) [%] | Inhibitory Effect against Liver Injuries (%) ALT ([2]; dose 16.7 mg/kg p.o. once) [%] | Inhibitory Effect against Liver Injuries (%) ALT ([2]; dose 50 mg/kg p.o. once) [%] | Inhibitory Effect against Liver Injuries (%) ALT [3] [%] | Survival Rate (%) [4] [%]
1 | C(=N\OCc1ccccn1)/c1ccc2c(c1)OCO2 [Compound 9, 1-[(2-pyridyl)methoxy]-1-aza-2-benzo[3,4-d]1,3-dioxolan-5-ylethene] | 61 | 60 | 56 | 75 | 64 | 64 | 87 | 98 | 29 | 90
2 | CC(=O)N(C)CC(=O)c1ccc2c(c1)OCO2 [SY-640, N-methyl-N-(3,4-methylenedioxyphenacyl)acetamide, reference compound] |  |  |  |  |  |  |  |  |  | 90
